This passage reports DC50, pDC50 and Dmax results from patent US20250130239A1, “PROTEIN DEGRADER” (University of Dundee, priority 2021, published 2025).

As a reminder, the DC50 is the concentration giving 50% degradation. A higher DC50 goes with a less potent degrader. Broadly, the Dmax is the largest share of the target that was removed. A low value points to a partial loss of target.

This assay addresses T1, BromoTag-Brd2 (Homo sapiens, UniProt O60885+P40337, L387A).
T1 construct: comprising residues 368-440 of human Brd4; Brd2 (endogenous protein, fusion partner in the same polypeptide); eGFP-P2A (upstream marker in the knock-in cassette) (N, cleaved yes); expressed in transfected cells; host or cells: HEK293, heterozygous CRISPR knock-in at the endogenous BRD2 locus
Briefly: Dose-response degradation assay (western blot, 6 h) in heterozygous BromoTag-Brd2 HEK293 cells. Format: cell-based. As for the experimental part: Dose-response Degradation Assays. All dose-response degradation assays were performed on the genotype verified heterozygous BromoTag-Brd2 HEK293 cell line. Heterozygous BromoTag-Brd2 HEK293 cells were plated at a density of 5×10^5 cells per well of a six healthy plate a day before initiation of the titration experiment. PROTAC compounds were dissolved in DMSO at a concentration of 10 mM, from these stock concentrations, PROTAC compounds were diluted to appropriate concentrations using DMSO in the range of 10 μM-1 nM. […] Control compounds such as MZ1, cis-MZ1 were similarly dissolved in DMSO to the appropriate concentration. […] Cells were washed twice with PBS before being harvested.
Western Blotting. […] The membranes were blocked for 1 h prior to incubation with the primary antibodies using 5% Milk TBST. […] Following overnight incubation with the primary antibodies at 4° C., the membranes were incubated with secondary antibodies (Anti-rabbit, Abcam AB216773, 1:5000 or anti-mouse, Abcam AB216774, 1:5000) and hFAB™ Rhodamine Anti-Tubulin Antibody (Biorad, 12004165, 1:10000) for one h and then imaged with a Bio-Rad imager (LI-COR Biosciences). All western blots were analysed for band intensities using Image Lab from Bio-Rad (LI-COR, Biosciences). The data extracted from these blots were then plotted and analysed using Prism (v. 8.2.0, GraphPad).
On the technique in general: A western blot detects proteins with antibodies after separation by electrophoresis.

“And” between values parts separate entries of the source, which are not always exact repeats. Equal entries are not always repeated.

T1 sequence (P40337 whole entry, other chains not shown, the tested form may be a part): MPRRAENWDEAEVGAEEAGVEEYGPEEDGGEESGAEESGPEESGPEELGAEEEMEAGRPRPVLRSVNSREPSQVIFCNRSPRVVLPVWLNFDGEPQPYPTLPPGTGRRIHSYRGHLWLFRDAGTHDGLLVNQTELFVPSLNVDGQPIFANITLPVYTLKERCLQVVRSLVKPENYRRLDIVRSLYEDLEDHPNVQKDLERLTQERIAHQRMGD

Consider `CC[C@@H](C(=O)OCCOCCOCCOCC(=O)N[C@H](C(=O)N1C[C@H](O)C[C@H]1C(=O)NCc1ccc(-c2scnc2C)cc1)C(C)(C)C)[C@@H]1N=C(c2ccc(Cl)cc2)c2c(sc(C)c2C)-n2c(C)nnc21` (single isomer, unassigned) [AGB1 (46)], for which, for the setting “6 h, range over the two antibodies, listed as 46”, the DC50 was 0.013 to 0.015 µM and < 0.015 µM. Besides, the pDC50 is, setting by setting: (Ab: Brd4^BD2 L387A, single stereoisomers, 8-point 10 μM-1 nM, 6 h, mean (±S.E.) of two repeats) 7.8 ± 0.2; (Ab: BromoTag-Brd2, single stereoisomers, 8-point 10 μM-1 nM, 6 h, mean (±S.E.) of two repeats) 7.9 ± 0.1; (BromoTag'ed BRD2 (P25440), N-term tag, Table 6) 7.8. For the same compound, the Dmax (HEK293, Ab: Brd4^BD2 L387A, single stereoisomers, 6 h) was found to be 99%.
